BindingDB's records for doi:10.7270/Q2S75DRW (Burnham Center For Chemical Genomics, 2008)

Molecular target: Heat shock 70 kDa protein 1A (Homo sapiens, UniProt V9GZ37)
Assay: Hsp70 inhibitors, SAR follow-up, biochemical, fluorescence polarization (AID 1072)

Chain of Heat shock 70 kDa protein 1A (V9GZ37 whole entry): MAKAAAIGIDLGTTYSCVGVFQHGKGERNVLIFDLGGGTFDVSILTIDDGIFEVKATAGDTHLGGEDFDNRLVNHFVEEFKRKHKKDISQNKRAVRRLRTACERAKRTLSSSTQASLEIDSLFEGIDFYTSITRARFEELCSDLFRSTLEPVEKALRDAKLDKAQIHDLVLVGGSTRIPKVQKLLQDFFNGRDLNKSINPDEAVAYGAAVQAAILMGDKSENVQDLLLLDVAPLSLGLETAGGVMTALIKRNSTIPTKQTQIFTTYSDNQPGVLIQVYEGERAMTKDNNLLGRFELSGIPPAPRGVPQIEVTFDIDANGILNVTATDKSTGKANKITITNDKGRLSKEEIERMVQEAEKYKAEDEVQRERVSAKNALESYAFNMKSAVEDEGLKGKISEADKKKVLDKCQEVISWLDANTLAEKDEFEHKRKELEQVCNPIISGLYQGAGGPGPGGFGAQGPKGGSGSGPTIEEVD

**Q.** Which IC50 does the source give for O=C1C=C2CC3(O)CCc4c(ccc(O)c4O)C3=C2CC1=O (stereo unspecified) [3,4,6a,10-tetrakis(oxidanyl)-6,7-dihydro-5H-benzo[g]fluoren-9-one] here?
**A.** Its IC50 is 34.2 µM.
